Data: a melting point compilation (Tetko et al.; mined from patent text by program, amines drawn as free bases though some values may be those of a salt)

| SMILES | melting point |
| --- | --- |
| CCCCc1sc2ccc([N+](=O)[O-])cc2c1C(=O)c1ccc(OCCCN(CCCC)CCCC)cc1 | 88 °C |
| CN1C(=O)C(c2ccc(OC(F)F)cc2)(c2cccc(CCCC(F)F)c2)N=C1N (stereo unspecified) | 54 to 57 °C |
| O=C1c2ccccc2C(=O)N1OCc1cnn(C(c2ccccc2)(c2ccccc2)c2ccccc2)c1 | 186 to 188 °C |
| Cc1ccc(-c2cc(C(F)(F)F)nn2-c2ccc(S(N)(=O)=O)c(F)c2)cc1 | 126 to 128 °C |
| Nc1nc(N)c2cc(Cc3ccccc3Cl)ccc2n1 | 220 to 222 °C |
| CC(C)N(CCC(CCN(C(C)C)C(C)C)(C(N)=O)c1ccccc1)C(C)C | 102 to 103 °C |
| O=c1[nH]c2ccc(C#CCCN3CCC(Cc4ccccc4)CC3)cc2[nH]1 | 221 to 223 °C |
| Cc1nc2ccccn2c1CN1CCC(Nc2nc3ccccc3n2Cc2ccc(F)cc2)CC1 | 198 °C |
| CC(C)c1nc2c(c(-c3ccc(F)cc3)c1CO)CCC2(C)C | 141 to 143 °C |
| COCc1nc(N)nc(N)c1-c1cccc(Cl)c1Cl | 237 to 240 °C |
| CCOC(=O)c1cnc2c(c(C)nn2-c2ccccc2)c1N(Cc1cccnc1)S(=O)(=O)c1ccc(OC)cc1 | 148 to 150 °C |
| CC(=O)CC(=O)N[C@H]1CC(=O)OC1=O | 132 to 135 °C |
| CONC(=N)c1ccc(-c2cc3ncn([C@H](C)[C@](O)(Cn4cncn4)c4ccc(F)cc4F)c(=O)c3s2)cc1 | 125 to 128 °C |
| Cc1cc(=O)c2ccccc2s1 | 70 °C |
| Cc1nn(-c2ccccc2)nc1C(=O)N1CCC2(CC1)CSC1=C(O2)c2ccccc2C(=O)C1=O | 275 to 280 °C |
| CCOC(=O)/C(=N\OC1(C)CCCC1)c1csc(N)n1 | 94 to 95 °C |
| CC(=O)OCCOc1ccc(OCCOC(C)=O)c(N)c1 | 67.5 to 69.5 °C |
| CC(C)(C)C(=O)Nc1nc(OCCCCOCc2ccccc2)ccc1C=O | 82 to 84 °C |
| CCOC(=O)c1nc(NCC(c2ccccc2)c2ccccc2)c2ncn([C@@H]3O[C@H](CO)[C@@H](O)[C@H]3O)c2n1 | 118 to 120 °C |
| CCc1cc(=O)c2c([nH]1)CCCN2C(=O)C(F)(F)F | 271 to 274 °C |
| CCCCCS(=O)(=O)NC(=O)CCc1cc(C2CC2)nn1Cc1ccc(C(F)(F)F)cc1Cl | 152 to 154 °C |
| CN(CC=C(F)C(F)(F)C(F)(F)C(F)(F)F)CCCCCC1Cc2cc(O)ccc2C2C(F)CC3(C)C(O)CCC3C12 (stereo unspecified) | 130 °C |
| CCCOc1ccccc1-c1nc(O)cc(C#N)n1 | 135 to 136 °C |
| O=C1NCCc2ccc(OCCCCN3CCC(c4cccc(Cl)c4Cl)CC3)cc21 | 113 to 114 °C |

| SMILES | melting point |
| --- | --- |
| CCCCCCCNC(=O)Nc1cc(N(C)C)ccc1C(=O)NC1CCN(C(c2ccccc2)c2ccccc2)CC1 | 87 °C |
| CCCCOc1c(CNC(=O)OC(C)(C)C)n(CC(C)C)c(=O)c2ccc(NC(=O)OCC3c4ccccc4-c4ccccc43)cc12 | 137 to 138 °C |
| CC(=O)N(CC(=O)O)c1c(C(=O)c2ccccc2)[nH]c2cc(Cl)ccc12 | 148 to 154 °C |
| NCC(c1cccc(OCc2ccccc2)c1)C1CCCCC1O (mixture of isomers) | 139 to 141 °C |
| CCC(O)(c1ccc(F)cc1)c1ccc(OCCN2CCCCC2)cc1 (stereo unspecified) | 72 to 73 °C |
| O=C1CCc2cc(-c3cccs3)ccc21 | 148 °C |
| COC(=O)c1cc(Cl)cnc1NCc1ccc(OC)cc1 | 75 to 77 °C |
| CC(=O)Oc1cc(C(C)(C)C)ccc1C1(OC(C)=O)C(=O)c2ccccc2C1=O | 119 to 120 °C |
| O=Cc1ccc(OCc2ccccc2)c(OC2CCCC2)c1 | 55 to 56 °C |
| CC(C)(C)c1ccc(C2(CN)CC2)cc1 | 39 to 41 °C |
| COCCCN1C(=O)COc2ccc(Br)cc21 | 193 to 195 °C |
| CCc1cc2cc(O)c(Cl)c(Cl)c2s1 | 69 to 70 °C |
| CC(=O)COc1c(-c2ccc(S(C)(=O)=O)cc2)cnn(-c2ccc(F)c(F)c2)c1=O | 169 to 170 °C |
| O=C(NNc1ccccc1Cl)c1ccccc1F | 105 to 107 °C |
| COC(=O)Cn1c(C)cc(CC2CCCCC2)c([N+](=O)[O-])c1=O | 128 °C |
| NC(=O)c1nc(-c2ccncc2)nc2c1NC(=O)CN2c1ccccc1 | 298 to 304 °C |
| Cc1cccnc1C1CC(C)(C)Oc2ccc([N+](=O)[O-])cc21 (stereo unspecified) | 164 to 165 °C |
| CCOC(=O)C(=O)Nc1ccc2c(=O)n3c(nc2c1)C(=Cc1cccc(OC)c1OCC)CC3 | 174 to 177 °C |
| CCCCCCCCCCOc1ccc2cc(C#CC(C)O)ccc2c1 (stereo unspecified) | 74 to 75 °C |
| CCCc1nc2cccc(C(=O)OC)c2n1Cc1ccc(-c2ccccc2-c2nc(=O)o[nH]2)cc1 | 224 to 226 °C |
| CCn1c2ccccc2c2c3c(ccc21)c(C=O)cn3C | 144 to 146 °C |
| COC(=O)c1ccc2ncccc2c1C(=O)OC | 124 to 125 °C |
| CCCn1c(COCC)nc2c(N)nc3ccc(OCCCCCCNC(=O)NC(C)C)cc3c21 | 167 to 169 °C |
| CCCCCCCCCCCCCCCC(=O)C1(O)OC(COCc2ccccc2)C(OCc2ccccc2)C(OCc2ccccc2)C1OCc1ccccc1 (stereo unspecified) | 52 to 53 °C |

| SMILES | melting point |
| --- | --- |
| CCOC(=O)N(C(=O)N1CC(c2ccc(Cl)cn2)C(c2ccc(F)cc2)=N1)c1ccc(OC(F)(F)F)cc1 (stereo unspecified) | 160 to 161 °C |
| CN1C(=O)C(c2ccc(OC(F)(F)F)cc2)(C23CC4CC(CC(C4)C2)C3)N=C1N (stereo unspecified) | 125 °C |
| CCCCCc1ccc(OC(=O)c2ccc(O)cc2Cl)cc1 | 149 to 151 °C |
| CCOC(=O)C(=C(c1ccc(F)cc1)c1ccc(F)cc1)c1nnn(C(C)(C)C)n1 | 143 to 144 °C |
| COc1c(C)c(C)c(OC)c(CCCOc2ccc(CC3SC(=O)NC3=O)cc2)c1C (stereo unspecified) | 111 to 113 °C |
| COC(=O)c1c(C(=O)OC)c2n(c1C)Cc1[nH]c3ccccc3c1C2 | 252 to 253 °C |
| O=C(Nc1ccc(C(=O)N2CCCCc3cc(Cl)ccc32)cn1)c1ccccc1OCCCCO | 157 to 158 °C |
| N#CCCC=C(c1ccccc1)c1ccccc1 | 64 to 66 °C |
| CCOC(=O)C(=CN(C)C)C(=O)c1cc2cc(F)c(F)c(F)c2nc1Cl | 118 °C |
| COc1ccc(C(=O)c2ccc(OCC(=O)O)c(Cl)c2Cl)cc1 | 158 to 159 °C |
| CCc1nc2c(N)nc3ccccc3c2n1CCCCNC(=O)C(C)C | 155 to 156 °C |
| COc1ccc(S(=O)(=O)Nc2cccc3c2Nc2ccccc2S3)cc1 | 158 to 160 °C |
| Cc1cc2nc(C=Cc3ccc(C(=O)O)cc3)oc2cc1C | > 300 °C |
| CCN(CC)c1ccc(C(=O)Cn2ncc(-c3ccc(S(C)(=O)=O)cc3)c(-c3ccc(F)cc3)c2=O)cc1 | 105 to 108 °C |
| Nc1c(-c2cc(Cl)ccc2O)c2cc(C(F)(F)F)ccc2[nH]c1=O | 233 to 235 °C |
| CC(=O)Nc1cc(C)c(N)cc1C | 133 to 135 °C |
| CC(CN1CCCC1)N1c2ccccc2Sc2ccc(C(=O)NCC3CCCC3)cc21 (racemic) | 124 °C |
| Nc1nc(-c2cc(Cl)ccc2Cl)nc(N2CC(O)CC2C(=O)O)n1 (stereo unspecified) | 138 to 145 °C |
| CSc1nnc(N(C(=O)CCl)c2c(C)cccc2C)n1C | 145 to 147 °C |
| CN1CCNC(=O)N1c1cc(Cl)cc(Cl)c1 | 150 to 151 °C |
| Nc1ccc(Cn2ncc3ccccc32)cc1 | 110 to 111 °C |
| COc1cc(-n2c(OC)nc(C(F)(F)C(F)(F)F)cc2=O)c(F)cc1Cl | 123 to 125 °C |
| Cc1c(-c2cccnc2)n(CCOc2ccc(C(=O)O)cc2)c2ccccc12 | 190 to 193 °C |
| Cc1cc2c(cc1C)N=C(c1ccc(-n3c(C)nc4cnccc43)cc1)CC(N)=N2 | 299 to 302 °C |

| SMILES | melting point |
| --- | --- |
| Nc1cnc(NCC2CCCCC2)nc1O | 180 °C |
| O=C(O)Cn1c(Cc2ccccc2)ccc(NC(=O)CCc2ccccc2)c1=O | 214 to 216 °C |
| COC(=O)c1nc(-c2cc(N)c(Cl)cc2F)cc(N)c1Cl | 99 to 101 °C |
| COc1ccc(CCc2c(Cl)cncc2Cl)c2cc(C#N)nn12 | 208 to 209 °C |
| O=C1N(N(c2ccccc2)c2ccccc2)c2ccccc2C1(Cc1ccncc1)Cc1ccncc1 | 184 to 186 °C |
| COc1ccccc1Oc1c(Cl)nc(SC)nc1Cl | 148 to 150 °C |
| CC(=O)OC(C)(N=NC(C)(OC(C)=O)C(C)C)C(C)C (stereo unspecified) | 55 to 62 °C |
| CC(O)(c1nc2ccccc2[nH]1)C(F)(F)F (stereo unspecified) | 184 to 187 °C |
| CSC1C(=O)Nc2ccc(C3=NNC(=O)SC3C)cc21 (stereo unspecified) | 159 °C |
| CCOC(=O)N(Cn1cc(Cl)cnc1=O)c1ccccc1 | 174 °C |
| COc1ccc(C=CC2=NN=C(C)Cc3cc(OC)c(OC)cc32)c(OC)c1 | 148 to 150 °C |
| C#CCN(C(C)C)C(C)CC1=C2c3ccc(OC)cc3CCC2CCNC1=O (stereo unspecified) | 146 to 148 °C |
| COc1cc(OC)nc(Oc2cccc3c2C(=O)OC3C)n1 (stereo unspecified) | 190 to 191 °C |
| CC(C)[Si](C#Cc1ccc2cc3c(cc2c1)Cc1cc2cc(C#C[Si](C(C)C)(C(C)C)C(C)C)ccc2cc1C3)(C(C)C)C(C)C | 73 to 75 °C |
| Cc1nc(N)c2nc(CO)n(NCc3ccccc3)c2c1C | > 250 °C |
| COC(=O)Nc1nc2ccc(SC[Si](C)(C)C)cc2[nH]1 | 189 to 191 °C |
| Cc1ccc(-c2cc(C(O)/C=C/c3ccc(C(=O)O)cc3)cc3c2C(C)(C)CCC3(C)C)cc1 (stereo unspecified) | 179 °C |
| CCNC(CC)c1ccc(Cl)c2nc3n(c12)CCCN3c1ccc(Cl)cc1Cl (stereo unspecified) | 124 to 127 °C |
| OC(CNCCNc1ccc(Cl)nn1)COc1ccccc1 (stereo unspecified) | 147 to 149 °C |
| Cn1c(C(F)(F)F)cc(=O)n(-c2cc(OC(=O)NCC3CCCCC3)c(Cl)cc2F)c1=O | 132 to 135 °C |
| Nc1nc(C[C@H](NC(=O)[C@H](Cc2ccccc2)NS(=O)(=O)N2CCOCC2)C(=O)O)cs1 | 149 to 151 °C |
| NC(=O)C(c1cccc(F)c1)N(C(=O)c1cccn2ccnc12)C(F)(F)F (stereo unspecified) | 118 to 120 °C |
| CC(=O)Nc1c(C(=O)c2cccc(S(N)(=O)=O)c2)[nH]c2cc(Cl)ccc12 | 250 to 251 °C |
| OCCC(CCO)c1ccccn1 | 44 °C |
